Experimental data published in US9120771B2, “Azetidine derivative and antidepressant composition including the same” (KOREA INSTITUTE OF SCIENCE AND TECHNOLOGY, priority 2011, dated 2015).
Counter-ions that a name gives are not always drawn. Like-named read-outs stand apart in the source and are kept apart here.

What was measured:
[1] = target: T1, human serotonin transporter (Homo sapiens (Human), UniProt P31645); assay: hSERT reuptake assay (HEK-hSERT, FDSS6000); assay type: cell-based; conditions: HEK-hSERT cells
T1 sequence (P31645 whole entry): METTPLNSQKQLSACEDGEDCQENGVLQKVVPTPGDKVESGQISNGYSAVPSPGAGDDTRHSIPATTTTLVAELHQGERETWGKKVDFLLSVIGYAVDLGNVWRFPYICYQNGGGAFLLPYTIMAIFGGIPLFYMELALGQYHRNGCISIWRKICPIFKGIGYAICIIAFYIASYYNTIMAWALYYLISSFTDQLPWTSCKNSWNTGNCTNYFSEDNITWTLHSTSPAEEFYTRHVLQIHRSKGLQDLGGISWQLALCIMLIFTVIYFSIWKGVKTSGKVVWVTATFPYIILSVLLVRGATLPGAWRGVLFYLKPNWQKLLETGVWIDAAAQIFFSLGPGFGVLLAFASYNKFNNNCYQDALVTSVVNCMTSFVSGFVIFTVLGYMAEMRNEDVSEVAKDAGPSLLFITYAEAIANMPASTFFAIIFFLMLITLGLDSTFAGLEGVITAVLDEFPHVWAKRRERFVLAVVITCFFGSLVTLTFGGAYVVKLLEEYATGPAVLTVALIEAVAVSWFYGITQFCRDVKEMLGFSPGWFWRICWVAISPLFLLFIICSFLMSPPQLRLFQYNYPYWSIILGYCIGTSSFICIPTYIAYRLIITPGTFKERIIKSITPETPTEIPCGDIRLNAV

[2] = target: T2, human norepinephrine transporter (Homo sapiens (Human), UniProt P23975); assay: hNET reuptake assay (HEK-hNET, FDSS6000); assay type: cell-based; conditions: HEK-hNET cells
T2 sequence (P23975 whole entry): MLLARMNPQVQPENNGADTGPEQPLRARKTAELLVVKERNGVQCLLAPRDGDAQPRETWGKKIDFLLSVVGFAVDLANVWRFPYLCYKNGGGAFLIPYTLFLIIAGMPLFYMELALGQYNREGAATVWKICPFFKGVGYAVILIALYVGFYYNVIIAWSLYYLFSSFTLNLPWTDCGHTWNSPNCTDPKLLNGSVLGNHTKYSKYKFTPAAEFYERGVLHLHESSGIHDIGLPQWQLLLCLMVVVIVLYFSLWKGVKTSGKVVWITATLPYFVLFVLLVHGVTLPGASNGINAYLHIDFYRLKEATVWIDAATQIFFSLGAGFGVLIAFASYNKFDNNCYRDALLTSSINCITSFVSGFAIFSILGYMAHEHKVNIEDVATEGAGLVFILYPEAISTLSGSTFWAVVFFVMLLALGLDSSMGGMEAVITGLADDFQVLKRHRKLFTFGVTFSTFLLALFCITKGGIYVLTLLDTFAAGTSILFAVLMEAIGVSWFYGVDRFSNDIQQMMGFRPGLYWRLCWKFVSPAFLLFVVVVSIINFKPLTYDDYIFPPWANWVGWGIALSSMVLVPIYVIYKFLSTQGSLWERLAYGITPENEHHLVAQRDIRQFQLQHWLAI

[3] = target: T3, human dopamine transporter (Homo sapiens (Human), UniProt Q01959); assay: hDAT reuptake assay (HEK-hDAT, FDSS6000); assay type: cell-based; conditions: HEK-hDAT cells
T3 sequence (Q01959 whole entry): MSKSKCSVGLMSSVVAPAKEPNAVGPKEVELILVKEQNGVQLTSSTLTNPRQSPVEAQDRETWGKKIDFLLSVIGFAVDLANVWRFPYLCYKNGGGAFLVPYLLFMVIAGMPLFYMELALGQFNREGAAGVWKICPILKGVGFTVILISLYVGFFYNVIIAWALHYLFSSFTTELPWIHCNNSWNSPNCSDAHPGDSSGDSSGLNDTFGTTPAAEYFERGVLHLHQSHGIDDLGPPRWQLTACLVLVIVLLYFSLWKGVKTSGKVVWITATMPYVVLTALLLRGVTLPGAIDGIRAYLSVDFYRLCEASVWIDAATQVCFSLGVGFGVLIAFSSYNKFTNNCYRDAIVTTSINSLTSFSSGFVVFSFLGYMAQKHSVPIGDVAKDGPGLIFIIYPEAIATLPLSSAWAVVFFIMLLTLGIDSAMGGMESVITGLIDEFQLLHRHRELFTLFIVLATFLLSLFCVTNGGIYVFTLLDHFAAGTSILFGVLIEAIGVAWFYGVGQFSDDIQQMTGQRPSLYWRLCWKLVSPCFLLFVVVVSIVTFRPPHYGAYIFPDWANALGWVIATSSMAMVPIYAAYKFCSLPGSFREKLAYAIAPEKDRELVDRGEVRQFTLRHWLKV

[4] = target: T2, human norepinephrine transporter; assay: hNET binding assay ([3H]Nisoxetine); conditions: for inhibition at 10 µM: read-out: hNET binding assay %-inhibition (10 uM)
Protocol: NE transporter binding assay for evaluating binding of the compound to the norepinephrine transporter was carried out using human recombinant norepinephrine transporter membrane (PerkinElmer Life and Analytical Sciences, USA) expressed in MDCK cells and radioisotope [^3H]Nisoxetine (PerkinElmer).
That is, the test drug, 6 nM [^3H]Nisoxetine, norepinephrine transporter membrane (11 ug/well), 120 mM NaCl and 50 mM Tris-HCl buffer (pH 7.4) containing 5 mM KCl were added to obtain a reaction mixture with a final volume of 0.25 ml. After incubation for 60 minutes at 4° C., the mixture was quickly passed through a Filtermat A glass fiber filter pre-soaked with 0.5% (w/v) PEI (polyethyleneimine) using Inotech Harvester (Inotech) to terminate the reaction. After washing with cold washing buffer (50 mM Tris-HCl, pH 7.4, 0.9% NaCl) solution, the filter was covered with MeltiLex and sealed in a sample bag. After drying in an oven, radioactivity was counted using MicroBeta Plus (Wallac).
Non-specific binding was measured in the presence of 1 uM desipramine. The IC50 value of the test drug was calculated from non-linear regression analysis (GraphPad Prism Program, San Diego, USA) of each %-inhibition value obtained from the drug with concentrations of 7th and 8th steps.

[5] = target: T3, human dopamine transporter; assay: hDAT binding assay ([3H]WIN35,428); conditions: for IC50: 8 nM [3H]WIN35,428; for inhibition at 10 µM: read-out: hDAT binding assay %-inhibition (10 uM);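 on all read-outs here: displacement of the radioligand from the transporter membranes, incubated 120 min at 4 °C in Tris-HCl buffer with NaCl, pH 7.4, measured by filter-bound radioactivity counting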
[6] = target: T1, human serotonin transporter; assay: hSERT binding assay ([3H]Imipramine); conditions: for inhibition at 10 µM: read-out: hSERT binding assay %-inhibition (10 uM);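 on all read-outs here: displacement of radiolabeled imipramine from the transporter, incubated 30 min at 27 °C in Tris-HCl pH 7.4 with NaCl and KCl, bound radioactivity counted after filtration, nonspecific binding defined with 200 uM imipramine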
[7] = 10 uM, membrane from MDCK cells
[8] = membrane from MDCK cells, 6 nM [3H]Nisoxetine
[9] = 10 uM, membrane from CHO-K1 cells
[10] = 10 uM, membrane from HEK293 cells
[11] = membrane from HEK293 cells, 2 nM [3H]Imipramine

SMILES	IC50 ([1]; Table 4)	IC50 ([2]; Table 4)	IC50 ([3]; Table 4)	melting point	IC50 [4, 8]	IC50 ([5]; membrane from CHO-K1 cells)	IC50 ([1]; Table 3)	IC50 [6, 11]	IC50 ([2]; Table 3)	IC50 ([3]; Table 3)	inhibition at 10 µM [4, 7]	inhibition at 10 µM [5]	inhibition at 10 µM [6, 10]	other results
Cl.Clc1ccc(C(OC2CCCCC2)C2CNC2)cc1Cl (centres unmarked) [KHG27255, 3-((cyclohexyloxy)(3,4-dichlorophenyl)methyl)azetidine hydrochloride]	58.4 nM	14.2 nM	54.8 nM	189.4 °C										
Cl.O=C(OC(c1ccc(Cl)cc1)C1CNC1)c1ccccc1 (centres unmarked) [KHG26772, azetidine-3-ly(4-chlorophenyl)methyl benzoate hydrochloride]					3480 nM	319 nM	2600 nM	357 nM	2500 nM	1300 nM				hNET binding assay %-inhibition (10 uM) [4, 7]: 90%; hDAT binding assay %-inhibition (10 uM) [5, 9]: 66%; hSERT binding assay %-inhibition (10 uM) [6, 10]: 96%
Cc1ccccc1OC(c1ccc(Cl)c(Cl)c1)C1CNC1.Cl (centres unmarked) [KHG26774, 3-((3,4-dichlorophenyl)(ortho-tolyloxy)methyl)azetidine hydrochloride]				194 °C	25.8 nM	119 nM	800 nM		2200 nM	300 nM	100%	96%		IC50 [6]: 11.6 nM; inhibition at 10 µM [6]: 100%
c1ccc(OC(c2ccccc2)C2CNC2)cc1 (centres unmarked) [KHG26765, hydrochloride]					1660 nM	857 nM	50 nM	112 nM	40 nM	380 nM	90%	87%	98%	
Cl.Clc1ccc(C(OCc2ccccc2)C2CNC2)cc1Cl (centres unmarked) [KHG26770, 3-((benzyloxy)(3,4-dichlorophenyl)methyl)azetidine hydrochloride]				128 °C	93.1 nM	23.2 nM	900 nM	7.81 nM	700 nM	800 nM	99%	96%	98%	
Cc1cccc(OC(c2ccc(Cl)c(Cl)c2)C2CNC2)c1.Cl (centres unmarked) [KHG26775, 3-((3,4-dichlorophenyl)(meta-tolyloxy)methyl)azetidine hydrochloride]				200 °C	28.4 nM	61.8 nM	600 nM	19.8 nM	600 nM	400 nM	100%	99%	99%	
Cc1ccc(OC(c2ccc(Cl)c(Cl)c2)C2CNC2)cc1.Cl (centres unmarked) [KHG26776, 3-((3,4-dichlorophenyl)(para-tolyloxy)methyl)azetidine hydrochloride]				193 °C		168 nM	700 nM	5.67 nM	500 nM	300 nM		95%	100%	IC50 [4]: 27.1 nM; inhibition at 10 µM [4]: 100%
CC(C)(C)OC(c1ccc(Cl)c(Cl)c1)C1CNC1.Cl (centres unmarked) [KHG27252, 3-(tertiarybutoxy(3,4-dichlorophenyl)methyl)azetidine hydrochloride]	87 nM	96 nM	100 nM	159.9 °C										
Clc1ccc(C(OC2CCCC2)C2CNC2)cc1Cl (centres unmarked) [KHG27254, 3-((cyclopentyloxy)(3,4-dichlorophenyl)methyl)azetidine hydrochloride]	25.8 nM	15.8 nM	25.8 nM											
Cl.Clc1ccc(C(OC2CCC2)C2CNC2)cc1Cl (centres unmarked) [KHG27253, 3-(cyclobutoxy(3,4-dichlorophenyl)methyl)azetidine hydrochloride]	25.6 nM	11 nM	33.4 nM	166.1 °C										
Cl.Clc1ccc(C(OCc2ccccc2)C2CNC2)cc1 (centres unmarked) [KHG26769, 3-((benzyloxy)(4-chlorophenyl)methyl)azetidine hydrochloride]				184 °C	1340 nM	290 nM	1500 nM	21.6 nM	500 nM	800 nM	94%	84%	100%	
Cl.Clc1ccc(C(Oc2ccccc2)C2CNC2)cc1 (centres unmarked) [KHG26766, 3-((4-chlorophenyl)(phenoxy)methyl)azetidine hydrochloride]				191 °C	90.2 nM	227 nM	40 nM		40 nM	150 nM	90%	94%		IC50 [6]: 9.2 nM; inhibition at 10 µM [6]: 98%
CCCC(Oc1ccc2ccccc2c1)C1CNC1.Cl (centres unmarked) [KHG27284, 3-(1-(naphthalene-2-yloxy)butyl)azetidine hydrochloride]	8.55 nM	79.5 nM	710 nM	77 °C										
CN1CC(C(Oc2ccccc2)c2ccc3ccccc3c2)C1 (centres unmarked) [KHG26907, 1-methyl-3-(naphthalene-2-yl(phenoxy)methyl)azetidine]	202 nM	87.9 nM	223 nM											
Cl.c1ccc(COC(c2ccccc2)C2CNC2)cc1 (centres unmarked) [KHG26768, 3-((benzyloxy)(phenyl)methyl)azetidine hydrochloride]				185 °C	2300 nM	985 nM	4600 nM	82.9 nM	800 nM	1900 nM	84%	90%	97%	
Clc1ccc(C(Oc2ccccc2)C2CNC2)cc1Cl (centres unmarked) [KHG26767, 3-((3,4-dichlorophenyl)(phenoxy)methyl)azetidine hydrochloride]					5.5 nM	68.8 nM	50 nM	4.3 nM	30 nM	60 nM	100%		98%	inhibition at 10 µM [5, 9]: 94%
Cl.O=C(OC(c1ccc(Cl)c(Cl)c1)C1CNC1)c1ccccc1 (centres unmarked) [KHG26773, azetidine-3-ly(3,4-dichlorophenyl)methyl benzoate hydrochloride]					214 nM	241 nM	900 nM	69.9 nM	1100 nM	500 nM				hNET binding assay %-inhibition (10 uM) [4, 7]: 100%; hDAT binding assay %-inhibition (10 uM) [5, 9]: 97%; hSERT binding assay %-inhibition (10 uM) [6, 10]: 100%
